Assay results taken from patent publication US10745346B2, “Agonists of protein tyrosine phosphatase SHP-1” (priority 2015, dated 2020).

What was measured:
[1] = system: PLC5 cells (a hepatocellular carcinoma cell line); experiment: Cytotoxicity, MTT cell viability assay; format: cell-based; conditions: 72 h exposure
Method: PLC5 cells (a hepatocellular carcinoma cell line) were seeded at 5×10^3 cells per well in 96-well plates. Then, cells were exposed to SC derivatives at the indicated doses for 72 h. After that, cells were incubated with MTT (1 mg/ml) (Sigma-Aldrich, St. Louis, Mo.) for 2 h at 37° C. Cell viability was then assessed by measuring the absorbance at 570 nm using a microplate reader.

[2] = biological target: Recombinant SHP-1 protein (Homo sapiens, UniProt P29350); experiment: SHP-1 phosphatase activity assay (RediPlate 96 EnzChek Tyrosine Phosphatase Assay kit); format: biochemical; conditions: SC derivatives at 1 μM for 2 hr; recombinant SHP-1 25 ng; control DMSO = 100; mean±SD (N=3)
Method: Effects of SC Derivatives on Phosphatase Activity in Recombinant SHP-1 RediPlate 96 EnzChek Tyrosine Phosphatase Assay kit (R-22067) was used for SHP-1 activity assay (Molecular Probes). Recombinant SHP-1 protein (25 ng) was reacted with SC derivatives at 1 μM for 2 hr. Then the SHP-1 phosphatase activity assay was performed according to the user's manual and the absorbance was measured at 465 nm. The control group was DMSO, which functioned as the solvent of the SC derivatives. The values were expressed by mean±SD (N=3).

Sequence of Recombinant SHP-1 protein (P29350 whole entry): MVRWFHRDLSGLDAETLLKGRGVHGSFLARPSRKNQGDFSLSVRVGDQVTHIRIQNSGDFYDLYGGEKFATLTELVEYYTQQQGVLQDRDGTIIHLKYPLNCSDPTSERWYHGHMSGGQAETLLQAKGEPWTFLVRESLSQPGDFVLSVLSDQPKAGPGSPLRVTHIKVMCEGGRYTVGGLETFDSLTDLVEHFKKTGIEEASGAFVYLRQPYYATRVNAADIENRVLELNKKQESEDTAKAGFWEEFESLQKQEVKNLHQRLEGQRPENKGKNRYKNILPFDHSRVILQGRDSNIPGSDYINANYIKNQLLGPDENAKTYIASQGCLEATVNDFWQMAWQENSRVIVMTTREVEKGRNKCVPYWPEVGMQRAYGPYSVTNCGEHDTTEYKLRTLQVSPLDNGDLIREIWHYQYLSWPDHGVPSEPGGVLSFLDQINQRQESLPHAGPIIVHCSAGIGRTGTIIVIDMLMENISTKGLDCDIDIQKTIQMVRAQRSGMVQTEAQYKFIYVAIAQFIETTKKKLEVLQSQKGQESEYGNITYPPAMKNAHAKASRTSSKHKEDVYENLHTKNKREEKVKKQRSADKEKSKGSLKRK

SHP-1 Activity (% of control) [2]	Compound	IC50 [1] [nM]
336.99 ± 50.76 % of control	N#Cc1ccc(Oc2cc(NC(=O)Nc3cc(C(F)(F)F)cc(C(F)(F)F)c3)ccc2F)cc1 [compound 152, 1-(3,5-bis(trifluoromethyl)phenyl)-3-(3-(4-cyanophenoxy)-4-fluorophenyl) urea]	340
135.54 ± 5.11 % of control	N#CCc1ccc(NC(=O)Nc2ccc(F)c(Oc3ccc(C#N)cc3)c2)cc1 [compound 153, 1-(4-(cyanomethyl)phenyl)-3-(3-(4-cyanophenoxy)-4-fluorophenyl)urea]	1830
115.12 ± 3.84 % of control	N#Cc1ccc(Oc2cc(NC(=O)Nc3ccc(F)c(C(F)(F)F)c3)ccc2F)cc1 [compound 154, 1-(3-(4-cyanophenoxy)-4-fluorophenyl)-3-(4-fluoro-3-(trifluoromethyl)phenyl)urea]	620
112.47 ± 7.98 % of control	N#Cc1ccc(Oc2ccc3c(c2)N(C(=O)Nc2ccc(F)c(C(F)(F)F)c2)CCO3)cc1 [compound 156, 6-(4-cyanophenoxy)-N-(4-fluoro-3-(trifluoromethyl)phenyl)-2H-benzo[b][1,4]oxazine-4(3H)-carboxamide]	1870
106.27 ± 6.28 % of control	N#Cc1ccc(Oc2ccc3c(c2)N(C(=O)Nc2ccc(Cl)c(C(F)(F)F)c2)CCO3)cc1 [compound 157, N-(4-chloro-3-(trifluoromethyl)phenyl)-6-(4-cyanophenoxy)-2H-benzo[b][1,4]oxazine-4(3H)-carboxamide]	1760
102.07 ± 3.47 % of control	N#Cc1ccc(Oc2ccc3c(c2)N(C(=O)Nc2cc(C(F)(F)F)cc(C(F)(F)F)c2)CCO3)cc1 [compound 158, N-(3,5-bis(trifluoromethyl)phenyl)-6-(4-cyanophenoxy)-2H-benzo[b][1,4]oxazine-4(3H)-carboxamide]	3310
98.04 ± 8.80 % of control	N#Cc1ccc(Oc2ccc3c(c2)N(C(=O)Nc2cccc(C(F)(F)F)c2)CCO3)cc1 [compound 159, 6-(4-cyanophenoxy)-N-(3-(trifluoromethyl)phenyl)-2H-benzo[b][1,4]oxazine-4(3H)-carboxamide]	2560
116.47 ± 6.60 % of control	N#CCc1ccc(NC(=O)N2CCOc3ccc(Oc4ccc(C#N)cc4)cc32)cc1 [compound 160, N-(4-(cyanomethyl)phenyl)-6-(4-cyanophenoxy)-2H-benzo[b][1,4]oxazine-4(3H)-carboxamide]	5130
140.58 ± 11.39 % of control	C#Cc1cccc(NC(=O)N2CCOc3ccc(Oc4ccc(C#N)cc4)cc32)c1 [compound 161, 6-(4-cyanophenoxy)-N-(3-ethynylphenyl)-2H-benzo[b][1,4]oxazine-4(3H)-carboxamide]	> 10000
141.39 ± 15.44 % of control	C#Cc1cccc(NC(=O)N2CCOc3cc(Oc4ccc(C#N)cc4)ccc32)c1 [compound 162, 7-(4-cyanophenoxy)-N-(3-ethynylphenyl)-2H-benzo[b][1,4]oxazine-4(3H)-carboxamide]	3060
142.36 ± 2.16 % of control	N#Cc1ccc(Oc2ccc3c(c2)OCCN3C(=O)Nc2cccc(C(F)(F)F)c2)cc1 [compound 163, 7-(4-cyanophenoxy)-N-(3-(trifluoromethyl)phenyl)-2H-benzo[b][1,4]oxazine-4(3H)-carboxamide]	2510
83.70 ± 10.90 % of control	N#Cc1ccc(Oc2ccc3c(c2)OCCN3C(=O)Nc2cc(C(F)(F)F)cc(C(F)(F)F)c2)cc1 [compound 164, N-(3,5-bis(trifluoromethyl)phenyl)-7-(4-cyanophenoxy)-2H-benzo[b][1,4]oxazine-4(3H)-carboxamide]	> 10000
